In US8158668B2, “Methods for treating CNS disorders with 4-imidazole derivatives” (Hoffmann-La Roche Inc., priority 2006, dated 2012):

Target: T1, mouseTAAR1 (Mus musculus, UniProt Q923Y8)
T1 construct: expressed in transfected cells; host or cells: HEK293 (ATCC #CRL-1573), stably transfected with pIRESneo2 expression plasmid; membrane preparation
Assay: Radioligand binding on membranes of HEK293 cells stably expressing TAAR1
Conditions: not given
Method: For the construction of expression plasmids the coding sequences of human, rat and mouse TAAR 1 were amplified from genomic DNA essentially as described by Lindemann et al.. The Expand High Fidelity PCR System (Roche Diagnostics) was used with 1.5 mM Mg^2+ and purified PCR products were cloned into pCR2.1-TOPO cloning vector (Invitrogen) following the instructions of the manufacturer. PCR products were subcloned into the pIRESneo2 vector (BD Clontech, Palo Alto, Calif.), and expression vectors were sequence verified before introduction in cell lines.
For the generation of stably transfected cell lines HEK293 cells were transfected with the pIRESneo2 expression plasmids containing the TAAR coding sequences (described above) with Lipofectamine 2000 (Invitrogen) according to the instructions of the manufacturer, and 24 hrs post transfection the culture medium was supplemented with 1 mg/ml G418 (Sigma, Buchs, Switzerland). After a culture period of about 10 d clones were isolated, expanded and tested for responsiveness to trace amines (all compounds purchased from Sigma) with the cAMP Biotrak Enzyme immunoassay (EIA) System (Amersham) following the non-acetylation EIA procedure provided by the manufacturer.
Cells at confluence were rinsed with ice-cold phosphate buffered saline without Ca^2+ and Mg^2+ containing 10 mM EDTA and pelleted by centrifugation at 1000 rpm for 5 min at 4° C. The pellet was then washed twice with ice-cold phosphate buffered saline and cell pellet was frozen immediately by immersion in liquid nitrogen and stored until use at −80° C. Cell pellet was then suspended in 20 ml HEPES-NaOH (20 mM), pH 7.4 containing 10 mM EDTA, and homogenized with a Polytron (PT 3000, Kinematica) at 10,000 rpm for 10 s. The homogenate was centrifuged at 48,000×g for 30 min at 4° C. and the pellet resuspended in 20 ml HEPES-NaOH (20 mM), pH 7.4 containing 0.1 mM EDTA (buffer A), and homogenized with a Polytron at 10,000 rpm for 10 s. The homogenate was then centrifuged at 48,000×g for 30 min at 4° C. and the pellet resuspended in 20 ml buffer A, and homogenized with a Polytron at 10,000 rpm for 10 s. Protein concentration was determined by the method of Pierce (Rockford, Ill.). The homogenate was then centrifuged at 48,000×g for 10 min at 4° C., resuspended in HEPES-NaOH (20 mM), pH 7.0 including MgCl2 (10 mM) and […] homogenized with a Polytron at 10,000 rpm for 10 s.
Binding assay was performed at 4° C. in a final volume of 1 ml, and with an incubation time of 30 min. […] Competing ligands were tested in a wide range of concentrations (10 pM-30 μM). […] Each experiment was performed in duplicate. All incubations were terminated by rapid filtration through UniFilter-96 plates (Packard Instrument Company) and glass filter GF/C, pre-soaked for at least 2 h in polyethylenimine 0.3%, and using a Filtermate 96 Cell Harvester (Packard Instrument Company). The tubes and filters were then washed 3 times with 1 ml aliquots of cold buffer B. Filters were not dried and soaked in Ultima gold (45 μl/well, Packard Instrument Company) and bound radioactivity was counted by a TopCount Microplate Scintillation Counter (Packard Instrument Company).

T1 sequence (Q923Y8 whole entry): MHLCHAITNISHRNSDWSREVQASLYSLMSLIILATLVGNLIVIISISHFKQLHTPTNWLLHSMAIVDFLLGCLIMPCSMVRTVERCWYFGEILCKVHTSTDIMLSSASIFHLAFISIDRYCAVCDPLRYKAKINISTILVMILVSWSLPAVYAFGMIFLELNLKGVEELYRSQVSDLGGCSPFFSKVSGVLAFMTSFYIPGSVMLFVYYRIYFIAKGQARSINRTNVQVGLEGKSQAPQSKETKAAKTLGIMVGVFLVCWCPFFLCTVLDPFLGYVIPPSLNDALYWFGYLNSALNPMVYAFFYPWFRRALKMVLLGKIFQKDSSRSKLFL

| SMILES | Ki |
| --- | --- |
| CCCC(c1ccccc1)c1c[nH]cn1 (racemic) [Example 1, rac-4-(1-Phenyl-butyl)-1H-imidazole] | 49 nM |
| CC(c1cnc[nH]1)c1ccccc1F (racemic) [Example 2, rac-4-[1-(2-Fluoro-phenyl)-ethyl]-1H-imidazole] | 12 nM |
| CCC(c1cc(F)cc(F)c1)c1cnc[nH]1 (racemic) [Example 4, rac-4-[1-(3,5-Difluoro-phenyl)-propyl]-1H-imidazole] | 28 nM |
| CCC(c1ccccc1)c1cnc[nH]1 (racemic) [Example 5, rac-4-(1-Phenyl-propyl)-1H-imidazole] | 36 nM |
| CCC(c1cnc[nH]1)c1ccccc1F (racemic) [Example 6, rac-4-[1-(2-Fluoro-phenyl)-propyl]-1H-imidazole] | 22 nM |
| CCC(c1cccc(F)c1)c1cnc[nH]1 (racemic) [Example 7, rac-4-[1-(3-Fluoro-phenyl)-propyl]-1H-imidazole] | 32 nM |
| CC(c1ccccc1)c1cnc[nH]1 (racemic) [Example 14, rac-4-(1-Phenyl-ethyl)-1H-imidazole] | 4 nM |
| CC(c1cccc(F)c1)c1cnc[nH]1 (racemic) [Example 15, rac-4-[1-(3-Fluoro-phenyl)-ethyl]-1H-imidazole] | 19 nM |
| CC(c1cnc[nH]1)c1cccc(F)c1F (racemic) [Example 17, rac-4-[1-(2,3-Difluoro-phenyl)-ethyl]-1H-imidazole] | 11 nM |
| CCC(c1cnc[nH]1)c1cccc(F)c1F (racemic) [Example 20, rac-4-[1-(2,3-Difluoro-phenyl)-propyl]-1H-imidazole] | 18 nM |
| CC(c1c[nH]cn1)c1cccc2ccccc12 (racemic) [Example 40, rac-4-(1-Naphthalen-1-yl-ethyl)-1H-imidazole] | 3 nM |
| Fc1cccc(Cl)c1Cc1cnc[nH]1 [Example 12, 4-(2-Chloro-6-fluoro-benzyl)-1H-imidazole] | 19 nM |
| CCc1cccc(CC)c1Cc1cnc[nH]1 [Example 26, 4-(2,6-Diethyl-benzyl)-1H-imidazole] | 10 nM |
| Brc1ccccc1Cc1cnc[nH]1 [Example 27, 4-(2-Bromo-benzyl)-1H-imidazole] | 34 nM |
| Cc1cccc(C)c1Cc1cnc[nH]1 [Example 29, 4-(2,6-Dimethyl-benzyl)-1H-imidazole] | 4 nM |
| Cc1cc(C)c(C)c(Cc2cnc[nH]2)c1C [Example 31, 4-(2,3,5,6-Tetramethyl-benzyl)-1H-imidazole] | 16 nM |
| Clc1cccc(Cl)c1Cc1cnc[nH]1 [Example 33, 4-(2,6-Dichloro-benzyl)-1H-imidazole] | 3 nM |
| c1ccc2cc(Cc3c[nH]cn3)ccc2c1 [Example 39, 4-Naphthalen-2-ylmethyl-1H-imidazole] | 29 nM |
| CC(C)(c1ccccc1)c1cnc[nH]1 [Example 41, 5-(1-methyl-1-phenyl-ethyl)-1H-imidazole trifluoro-acetate] | 46.1 nM |

| SMILES | Ki |
| --- | --- |
| C[C@@H](c1cnc[nH]1)c1cccc(F)c1F [Example 46, 4-[(R)-1-(2,3-Difluoro-phenyl)-ethyl]-1H-imidazole] | 7.8 nM |
| Brc1cc(Cc2c[nH]cn2)c2occc2c1 [Example 49, 4-(5-Bromo-benzofuran-7-ylmethyl)-1-imidazole] | 0.9 nM |
| c1cc2c(c(Cc3cnc[nH]3)c1)OCC2 [Example 50, 4-(2,3-Dihydro-benzofuran-7-ylmethyl)-1-imidazole] | 20.2 nM |
| c1cc(Cc2cnc[nH]2)c2occc2c1 [Example 51, 4-Benzofuran-7-ylmethyl-1-imidazole] | 9.3 nM |
| CCc1cccc(C)c1Cc1cnc[nH]1 [Example 57, 4-(2-Ethyl-6-methyl-benzyl)-1H-imidazole] | 10.8 nM |
| CCc1cccc(C2CC2)c1Cc1cnc[nH]1 [Example 58, 4-(2-Cyclopropyl-6-ethyl-benzyl)-1H-imidazole] | 9.8 nM |
| Clc1ccc(Oc2cccc(Cc3cnc[nH]3)c2)cc1 [Example 60, 4-[3-(4-Chloro-phenoxy)-benzyl]-1H-imidazole] | 27.6 nM |
| CCc1cccc(Cl)c1Cc1cnc[nH]1 [Example 61, 4-(2-Chloro-6-ethyl-benzyl)-1H-imidazole] | 11.5 nM |
| c1ccc(-c2ccccc2Cc2cnc[nH]2)cc1 [Example 67, 4-Biphenyl-2-ylmethyl-1H-imidazole] | 27.6 nM |
| CCc1cc(OC)cc(CC)c1Cc1cnc[nH]1 [Example 69, 4-(2,6-Diethyl-4-methoxy-benzyl)-1H-imidazole] | 2.6 nM |
| CCc1ccc(OC)c(CC)c1Cc1cnc[nH]1 [Example 70, 4-(2,6-Diethyl-3-methoxy-benzyl)-1H-imidazole] | 3.8 nM |
| c1ccc(-c2cccc(Cc3cnc[nH]3)c2)cc1 [Example 71, 4-Biphenyl-3-ylmethyl-1H-imidazole] | 39.1 nM |
| CCOc1cc(CC)c(Cc2cnc[nH]2)c(CC)c1 [Example 72, 4-(4-Ethoxy-2,6-diethyl-benzyl)-1H-imidazole] | 12.7 nM |
| CCOc1ccc(CC)c(Cc2cnc[nH]2)c1CC [Example 74, 4-(3-Ethoxy-2,6-diethyl-benzyl)-1H-imidazole] | 3.7 nM |
| CCc1cccc(F)c1Cc1cnc[nH]1 [Example 78, 4-(2-Ethyl-6-fluoro-benzyl)-1H-imidazole] | 17.9 nM |
| CCc1cc(Oc2ccccc2)cc(CC)c1Cc1cnc[nH]1 [Example 79, 4-(2,6-Diethyl-4-phenoxy-benzyl)-1H-imidazole] | 5.6 nM |
| CCc1ccc(Oc2ccccc2)c(CC)c1Cc1cnc[nH]1 [Example 80, 4-(2,6-Diethyl-3-phenoxy-benzyl)-1H-imidazole] | 13.9 nM |
| Cc1ccc2ccccc2c1Cc1cnc[nH]1 [Example 572, 4-(2-Methyl-naphthalen-1-ylmethyl)-1H-imidazole] | 5.6 nM |

Same assay, conditions: mouseTAAR1; competition with [3H]-rac-2-(1,2,3,4-tetrahydro-1-naphthyl)-2-imidazoline, 4° C., 30 min; read-out: Ki

| SMILES | Ki |
| --- | --- |
| Cc1cccc(Cc2c[nH]cn2)c1C [Example 25, 4-(2,3-Dimethyl-benzyl)-1H-imidazole, reference compound] | 43 nM |
| CCc1cc(OCc2ccccc2)cc(CC)c1Cc1cnc[nH]1 [Example 73, 4-(4-Benzyloxy-2,6-diethyl-benzyl)-1H-imidazole] | 11.7 nM |
